From BindingDB's records for doi:10.1021/jm0491492 (Uppsala University, 2005)

These compounds were tested against Type-2 angiotensin II receptor (Sus scrofa) (assay: Displacement of [125I]-Ang II from angiotensin II receptor type 2 in pig uterus myometrium).

Ki [nM]	SMILES
0.8	CC(C)[C@H](NC(=O)[C@H](CCCNC(=N)N)NC(=O)[C@@H](N)CC(=O)O)C(=O)Nc1cccc2c1N[C@@H](Cc1ccc(O)cc1)C(=O)N(CC(=O)N[C@@H](Cc1cnc[nH]1)C(=O)N1CCC[C@H]1C(=O)N[C@@H](Cc1ccccc1)C(=O)O)C2 [(3S)-3-amino-3-{[(1S)-1-{[(1S)-1-{[(2S)-4-({[(2S)-1-[(2S)-2-{[(1S)-1-carboxy-2-phenylethyl]carbamoyl}pyrrolidin-1-yl]-3-(1H-imidazol-4-yl)-1-oxopropan-2-yl]carbamoyl}methyl)-2-[(4-hydroxyphenyl)methyl]-3-oxo-2,3,4,5-tetrahydro-1H-1,4-benzodiazepin-9-yl]carbamoyl}-2-methylpropyl]carbamoyl}-4-[(diaminomethylidene)amino]butyl]carbamoyl}propanoic acid]
9.3	CC(C)[C@H](NC(=O)[C@H](C)NC(=O)[C@@H](N)CC(=O)O)C(=O)Nc1cccc2c1N[C@@H](Cc1ccc(O)cc1)C(=O)N(CC(=O)N[C@@H](Cc1cnc[nH]1)C(=O)N1CCC[C@H]1C(=O)N[C@@H](Cc1ccccc1)C(=O)O)C2 [(3S)-3-amino-3-{[(1S)-1-{[(1S)-1-{[(2S)-4-({[(2S)-1-[(2S)-2-{[(1S)-1-carboxy-2-phenylethyl]carbamoyl}pyrrolidin-1-yl]-3-(1H-imidazol-4-yl)-1-oxopropan-2-yl]carbamoyl}methyl)-2-[(4-hydroxyphenyl)methyl]-3-oxo-2,3,4,5-tetrahydro-1H-1,4-benzodiazepin-9-yl]carbamoyl}-2-methylpropyl]carbamoyl}ethyl]carbamoyl}propanoic acid]
2.8	N=C(N)NCCC[C@H](NC(=O)[C@@H](N)CC(=O)O)C(=O)Nc1cccc2c1N[C@@H](Cc1ccc(O)cc1)C(=O)N(CC(=O)N[C@@H](Cc1cnc[nH]1)C(=O)N1CCC[C@H]1C(=O)N[C@@H](Cc1ccccc1)C(=O)O)C2 [(3S)-3-amino-3-{[(1S)-1-{[(2S)-4-({[(2S)-1-[(2S)-2-{[(1S)-1-carboxy-2-phenylethyl]carbamoyl}pyrrolidin-1-yl]-3-(1H-imidazol-4-yl)-1-oxopropan-2-yl]carbamoyl}methyl)-2-[(4-hydroxyphenyl)methyl]-3-oxo-2,3,4,5-tetrahydro-1H-1,4-benzodiazepin-9-yl]carbamoyl}-4-[(diaminomethylidene)amino]butyl]carbamoyl}propanoic acid]
